# Laboratory results from patent US20250230193A1, “CYCLIC COMPOUND HAVING SELECTIVE KRAS INHIBITORY EFFECT ON HRAS AND NRAS” (CHUGAI SEIYAKU KABUSHIKI KAISHA, priority 2022, published 2025).
# Where a SMILES comes first, the peptide text is derived from it. Bridges are numbered along the chain shown (N, C = ends). [ ]: non-standard residue; d: D form. The star is where a group is joined. hPhe(3-Cl-4-CF3) = N[C@@H](CCc1ccc(C(F)(F)F)c(Cl)c1)C(=O)O; NPrPhe(4-CF3) = CCCN[C@@H](Cc1ccc(C(F)(F)F)cc1)C(=O)O; NMeGly(cPent) = CN[C@H](C(=O)O)C1CCCC1; Pro(4,4-F2) = O=C(O)[C@@H]1CC(F)(F)CN1; Hyp = O=C(O)[C@@H]1C[C@@H](O)CN1; NMeD = CN[C@@H](CC(=O)O)C(=O)O; NMeL = CN[C@@H](CC(C)C)C(=O)O; Morpholide = C1CN(*)CCO1; Ac5c = NC1(C(=O)O)CCCC1; Aze = O=C(O)[C@@H]1CCN1; Ac4c = NC1(C(=O)O)CCC1; Sar = CNCC(=O)O
# What was measured:
# [1] = biological target: GDP-bound HRAS wild-type protein (Homo sapiens, UniProt P01112); assay: Binding to HRAS by surface plasmon resonance (SPR), Single Cycle Kinetics; conditions: KD ratio HRAS/KRAS, SPR
# [2] = biological target: GDP-bound NRAS wild-type protein (Homo sapiens, UniProt P01111); assay: Binding to NRAS by surface plasmon resonance (SPR), Single Cycle Kinetics; conditions: KD ratio NRAS/KRAS, SPR
# GDP-bound NRAS wild-type protein, sequence (P01111 whole entry): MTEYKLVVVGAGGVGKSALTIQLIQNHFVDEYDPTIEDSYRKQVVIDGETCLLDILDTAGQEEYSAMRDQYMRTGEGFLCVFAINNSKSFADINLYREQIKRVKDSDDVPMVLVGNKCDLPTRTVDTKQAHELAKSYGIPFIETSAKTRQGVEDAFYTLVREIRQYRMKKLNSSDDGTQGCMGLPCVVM
# GDP-bound HRAS wild-type protein, sequence (P01112 whole entry): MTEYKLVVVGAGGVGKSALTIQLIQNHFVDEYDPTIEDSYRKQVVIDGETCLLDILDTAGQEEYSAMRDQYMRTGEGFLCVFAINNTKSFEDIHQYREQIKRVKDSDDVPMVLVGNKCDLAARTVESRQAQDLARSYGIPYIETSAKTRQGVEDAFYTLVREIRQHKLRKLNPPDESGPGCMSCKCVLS
smiles,measurement,setting,value
CCCN1C(=O)[C@@H]2CCN2C(=O)CN(C)C(=O)[C@H]([C@@H](C)CC)NC(=O)[C@H](CC(C)C)N(C)C(=O)C[C@@H](C(=O)N2CCOCC2)N(C)C(=O)[C@H](C2CCCC2)N(C)C(=O)C2(CCC2)NC(=O)[C@@H]2C[C@@H](OCC)CN2C(=O)[C@H](CCc2ccc(C(F)(F)F)c(Cl)c2)NC(=O)CN(C)C(=O)[C@@H]1Cc1ccc(C(F)(F)F)cc1 [PP0411] ([NMeL]I[Sar][Aze][NPrPhe(4-CF3)][Sar][hPhe(3-Cl-4-CF3)][Hyp](Et)[Ac4c][NMeGly(cPent)][NMeD]-Morpholide; lactam N-11),HRAS/KRAS (ratio of KD value with respect to GDP-bound HRAS wild-type protein to KD value with respect to KRAS),[1],C (A compound having a KD ratio of 0.1 or more and less than 3 is denoted as C)
same,NRAS/KRAS (ratio of KD value with respect to GDP-bound NRAS wild-type protein to KD value with respect to KRAS),[2],C (A compound having a KD ratio of 0.1 or more and less than 3 is denoted as C)
CCCN1C(=O)CN(C)C(=O)CN(C)C(=O)[C@H]([C@@H](C)CC)NC(=O)[C@H](CC(C)C)N(C)C(=O)C[C@@H](C(=O)N(C)C)N(C)C(=O)[C@H](C2CCCC2)N(C)C(=O)C2(CCC2)NC(=O)[C@@H]2CCCN2C(=O)[C@H](CCc2ccc(C(F)(F)F)c(Cl)c2)NC(=O)CN(C)C(=O)[C@@H]1Cc1ccc(C(F)(F)F)cc1 [PP0412] ([NMeL]I[Sar][Sar][NPrPhe(4-CF3)][Sar][hPhe(3-Cl-4-CF3)]P[Ac4c][NMeGly(cPent)][NMeD]-NMe2; lactam N-11),HRAS/KRAS (ratio of KD value with respect to GDP-bound HRAS wild-type protein to KD value with respect to KRAS),[1],C (A compound having a KD ratio of 0.1 or more and less than 3 is denoted as C)
same,NRAS/KRAS (ratio of KD value with respect to GDP-bound NRAS wild-type protein to KD value with respect to KRAS),[2],B (a compound having 3 or more and less than 10 is denoted as B)
"CCCN1C(=O)CN(C)C(=O)CN(C)C(=O)[C@H]([C@@H](C)CC)NC(=O)[C@H](CC(C)C)N(C)C(=O)C[C@@H](C(=O)N(C)C)N(C)C(=O)[C@H](C2CCCC2)N(C)C(=O)C2(CCCC2)NC(=O)[C@@H]2CC(F)(F)CN2C(=O)[C@H](CCc2ccc(C(F)(F)F)c(Cl)c2)NC(=O)CN(C)C(=O)[C@@H]1Cc1ccc(C(F)(F)F)cc1 [PP0413] ([NMeL]I[Sar][Sar][NPrPhe(4-CF3)][Sar][hPhe(3-Cl-4-CF3)][Pro(4,4-F2)][Ac5c][NMeGly(cPent)][NMeD]-NMe2; lactam N-11)",HRAS/KRAS (ratio of KD value with respect to GDP-bound HRAS wild-type protein to KD value with respect to KRAS),[1],C (A compound having a KD ratio of 0.1 or more and less than 3 is denoted as C)
same,NRAS/KRAS (ratio of KD value with respect to GDP-bound NRAS wild-type protein to KD value with respect to KRAS),[2],C (A compound having a KD ratio of 0.1 or more and less than 3 is denoted as C)
"CCCN1C(=O)CN(C)C(=O)CN(C)C(=O)[C@H]([C@@H](C)CC)NC(=O)[C@H](CC(C)C)N(C)C(=O)C[C@@H](C(=O)N(C)C)N(C)C(=O)[C@H](C2CCCC2)N(C)C(=O)C2(CCC2)NC(=O)[C@@H]2CC(F)(F)CN2C(=O)[C@H](CCc2ccc(C(F)(F)F)c(Cl)c2)NC(=O)CN(C)C(=O)[C@@H]1Cc1ccc(C(F)(F)F)cc1 [PP0414] ([NMeL]I[Sar][Sar][NPrPhe(4-CF3)][Sar][hPhe(3-Cl-4-CF3)][Pro(4,4-F2)][Ac4c][NMeGly(cPent)][NMeD]-NMe2; lactam N-11)",HRAS/KRAS (ratio of KD value with respect to GDP-bound HRAS wild-type protein to KD value with respect to KRAS),[1],C (A compound having a KD ratio of 0.1 or more and less than 3 is denoted as C)
same,NRAS/KRAS (ratio of KD value with respect to GDP-bound NRAS wild-type protein to KD value with respect to KRAS),[2],B (a compound having 3 or more and less than 10 is denoted as B)
CCCN1C(=O)CN(C)C(=O)CN(C)C(=O)[C@H]([C@@H](C)CC)NC(=O)[C@H](CC(C)C)N(C)C(=O)C[C@@H](C(=O)N(C)C)N(C)C(=O)[C@H](C2CCCC2)N(C)C(=O)C2(CCCC2)NC(=O)[C@@H]2C[C@@H](OCC)CN2C(=O)[C@H](CCc2ccc(C(F)(F)F)c(Cl)c2)NC(=O)CN(C)C(=O)[C@@H]1Cc1ccc(C(F)(F)F)cc1 [PP0415] ([NMeL]I[Sar][Sar][NPrPhe(4-CF3)][Sar][hPhe(3-Cl-4-CF3)][Hyp](Et)[Ac5c][NMeGly(cPent)][NMeD]-NMe2; lactam N-11),HRAS/KRAS (ratio of KD value with respect to GDP-bound HRAS wild-type protein to KD value with respect to KRAS),[1],B (a compound having 3 or more and less than 10 is denoted as B)
same,NRAS/KRAS (ratio of KD value with respect to GDP-bound NRAS wild-type protein to KD value with respect to KRAS),[2],B (a compound having 3 or more and less than 10 is denoted as B)
CCCN1C(=O)CN(C)C(=O)CN(C)C(=O)[C@H]([C@@H](C)CC)NC(=O)[C@H](CC(C)C)N(C)C(=O)C[C@@H](C(=O)N(C)C)N(C)C(=O)[C@H](C2CCCC2)N(C)C(=O)C2(CCC2)NC(=O)[C@@H]2C[C@@H](OCC)CN2C(=O)[C@H](CCc2ccc(C(F)(F)F)c(Cl)c2)NC(=O)CN(C)C(=O)[C@@H]1Cc1ccc(C(F)(F)F)cc1 [PP0416] ([NMeL]I[Sar][Sar][NPrPhe(4-CF3)][Sar][hPhe(3-Cl-4-CF3)][Hyp](Et)[Ac4c][NMeGly(cPent)][NMeD]-NMe2; lactam N-11),HRAS/KRAS (ratio of KD value with respect to GDP-bound HRAS wild-type protein to KD value with respect to KRAS),[1],C (A compound having a KD ratio of 0.1 or more and less than 3 is denoted as C)
same,NRAS/KRAS (ratio of KD value with respect to GDP-bound NRAS wild-type protein to KD value with respect to KRAS),[2],B (a compound having 3 or more and less than 10 is denoted as B)
CCCN1C(=O)CN(C)C(=O)CNC(=O)[C@H]([C@@H](C)CC)NC(=O)[C@H](CC(C)C)N(C)C(=O)C[C@@H](C(=O)N(C)C)N(C)C(=O)[C@H](C2CCCC2)N(C)C(=O)C2(CCCC2)NC(=O)[C@@H]2CCCN2C(=O)[C@H](CCc2ccc(C(F)(F)F)c(Cl)c2)NC(=O)CN(C)C(=O)[C@@H]1Cc1ccc(C(F)(F)F)cc1 [PP0417] ([NMeL]IG[Sar][NPrPhe(4-CF3)][Sar][hPhe(3-Cl-4-CF3)]P[Ac5c][NMeGly(cPent)][NMeD]-NMe2; lactam N-11),HRAS/KRAS (ratio of KD value with respect to GDP-bound HRAS wild-type protein to KD value with respect to KRAS),[1],C (A compound having a KD ratio of 0.1 or more and less than 3 is denoted as C)
same,NRAS/KRAS (ratio of KD value with respect to GDP-bound NRAS wild-type protein to KD value with respect to KRAS),[2],B (a compound having 3 or more and less than 10 is denoted as B)
CCCN1C(=O)CN(C)C(=O)CNC(=O)[C@H]([C@@H](C)CC)NC(=O)[C@H](CC(C)C)N(C)C(=O)C[C@@H](C(=O)N(C)C)N(C)C(=O)[C@H](C2CCCC2)N(C)C(=O)C2(CCC2)NC(=O)[C@@H]2CCCN2C(=O)[C@H](CCc2ccc(C(F)(F)F)c(Cl)c2)NC(=O)CN(C)C(=O)[C@@H]1Cc1ccc(C(F)(F)F)cc1 [PP0418] ([NMeL]IG[Sar][NPrPhe(4-CF3)][Sar][hPhe(3-Cl-4-CF3)]P[Ac4c][NMeGly(cPent)][NMeD]-NMe2; lactam N-11),HRAS/KRAS (ratio of KD value with respect to GDP-bound HRAS wild-type protein to KD value with respect to KRAS),[1],C (A compound having a KD ratio of 0.1 or more and less than 3 is denoted as C)
same,NRAS/KRAS (ratio of KD value with respect to GDP-bound NRAS wild-type protein to KD value with respect to KRAS),[2],B (a compound having 3 or more and less than 10 is denoted as B)
"CCCN1C(=O)CN(C)C(=O)CNC(=O)[C@H]([C@@H](C)CC)NC(=O)[C@H](CC(C)C)N(C)C(=O)C[C@@H](C(=O)N(C)C)N(C)C(=O)[C@H](C2CCCC2)N(C)C(=O)C2(CCCC2)NC(=O)[C@@H]2CC(F)(F)CN2C(=O)[C@H](CCc2ccc(C(F)(F)F)c(Cl)c2)NC(=O)CN(C)C(=O)[C@@H]1Cc1ccc(C(F)(F)F)cc1 [PP0419] ([NMeL]IG[Sar][NPrPhe(4-CF3)][Sar][hPhe(3-Cl-4-CF3)][Pro(4,4-F2)][Ac5c][NMeGly(cPent)][NMeD]-NMe2; lactam N-11)",HRAS/KRAS (ratio of KD value with respect to GDP-bound HRAS wild-type protein to KD value with respect to KRAS),[1],C (A compound having a KD ratio of 0.1 or more and less than 3 is denoted as C)
same,NRAS/KRAS (ratio of KD value with respect to GDP-bound NRAS wild-type protein to KD value with respect to KRAS),[2],B (a compound having 3 or more and less than 10 is denoted as B)
"CCCN1C(=O)CN(C)C(=O)CNC(=O)[C@H]([C@@H](C)CC)NC(=O)[C@H](CC(C)C)N(C)C(=O)C[C@@H](C(=O)N(C)C)N(C)C(=O)[C@H](C2CCCC2)N(C)C(=O)C2(CCC2)NC(=O)[C@@H]2CC(F)(F)CN2C(=O)[C@H](CCc2ccc(C(F)(F)F)c(Cl)c2)NC(=O)CN(C)C(=O)[C@@H]1Cc1ccc(C(F)(F)F)cc1 [PP0420] ([NMeL]IG[Sar][NPrPhe(4-CF3)][Sar][hPhe(3-Cl-4-CF3)][Pro(4,4-F2)][Ac4c][NMeGly(cPent)][NMeD]-NMe2; lactam N-11)",HRAS/KRAS (ratio of KD value with respect to GDP-bound HRAS wild-type protein to KD value with respect to KRAS),[1],C (A compound having a KD ratio of 0.1 or more and less than 3 is denoted as C)
same,NRAS/KRAS (ratio of KD value with respect to GDP-bound NRAS wild-type protein to KD value with respect to KRAS),[2],B (a compound having 3 or more and less than 10 is denoted as B)
CCCN1C(=O)CN(C)C(=O)CNC(=O)[C@H]([C@@H](C)CC)NC(=O)[C@H](CC(C)C)N(C)C(=O)C[C@@H](C(=O)N(C)C)N(C)C(=O)[C@H](C2CCCC2)N(C)C(=O)C2(CCCC2)NC(=O)[C@@H]2C[C@@H](OCC)CN2C(=O)[C@H](CCc2ccc(C(F)(F)F)c(Cl)c2)NC(=O)CN(C)C(=O)[C@@H]1Cc1ccc(C(F)(F)F)cc1 [PP0421] ([NMeL]IG[Sar][NPrPhe(4-CF3)][Sar][hPhe(3-Cl-4-CF3)][Hyp](Et)[Ac5c][NMeGly(cPent)][NMeD]-NMe2; lactam N-11),HRAS/KRAS (ratio of KD value with respect to GDP-bound HRAS wild-type protein to KD value with respect to KRAS),[1],C (A compound having a KD ratio of 0.1 or more and less than 3 is denoted as C)
same,NRAS/KRAS (ratio of KD value with respect to GDP-bound NRAS wild-type protein to KD value with respect to KRAS),[2],B (a compound having 3 or more and less than 10 is denoted as B)
CCCN1C(=O)CN(C)C(=O)CNC(=O)[C@H]([C@@H](C)CC)NC(=O)[C@H](CC(C)C)N(C)C(=O)C[C@@H](C(=O)N(C)C)N(C)C(=O)[C@H](C2CCCC2)N(C)C(=O)C2(CCC2)NC(=O)[C@@H]2C[C@@H](OCC)CN2C(=O)[C@H](CCc2ccc(C(F)(F)F)c(Cl)c2)NC(=O)CN(C)C(=O)[C@@H]1Cc1ccc(C(F)(F)F)cc1 [PP0422] ([NMeL]IG[Sar][NPrPhe(4-CF3)][Sar][hPhe(3-Cl-4-CF3)][Hyp](Et)[Ac4c][NMeGly(cPent)][NMeD]-NMe2; lactam N-11),HRAS/KRAS (ratio of KD value with respect to GDP-bound HRAS wild-type protein to KD value with respect to KRAS),[1],B (a compound having 3 or more and less than 10 is denoted as B)
same,NRAS/KRAS (ratio of KD value with respect to GDP-bound NRAS wild-type protein to KD value with respect to KRAS),[2],B (a compound having 3 or more and less than 10 is denoted as B)
